Here are results for five compounds from patent publication US20250051337A1 (priority 2021, published 2025).

The nature of data set [1]: In vivo plasma and liver concentrations, 20 mg/kg intraperitoneal. Conditions: female, C57BL/6J, mouse, ip. The procedure: (§1) All animal procedures were approved by the Sanford Burnham Prebys Medical Discovery Institute Institutional Animal Care and Use Committee and were performed according to the NIH guidelines for the Care and Use of Laboratory Animals. Adult female C57BL/6J mice were purchased from Jackson Laboratories and housed with free access to food and water on a 12 h light/dark cycle. Compounds were formulated in 5% DMSO, 10% Tween-80, and 85% H2O and injected intraperitoneally at 10 or 20 mg/kg. Blood samples were collected retro-orbitally at the indicated times and plasma was prepared by centrifugation. Livers were collected post mortem at the indicated times.
(§2) For quantification of compound, plasma samples were extracted with acetonitrile: water 4:1 with 0.1% formic acid containing indomethacin as an internal standard. Samples were centrifuged and the supernatants were diluted with acetonitrile: water and analyzed by LC-MS/MS using a Shimadzu Nexera X2 High-performance liquid chromatography (HPLC) (Shimadzu Scientific Instruments: Kyoto, Japan) coupled to an AB Sciex 6500 QTRAP (AB Sciex LLC: Toronto, Canada).
Adult female C57BL/6 mice (n=3/group) were intraperitoneally injected with vehicle or test compound (20 mg/kg), and blood samples and livers were collected at 30 min and 1 h post-injection, respectively. Plasma concentrations of all 13 compounds were >1.4 μM at 30 min after injection, and 10 compounds had liver concentrations >1.0 μM at 1 h after injection, as measured by LC-MS/MS, with particularly high plasma concentrations obtained with compounds 11 (15.9 μM), 16 (11.6 μM) and 105 (8.7 μM) (Table 5). To evaluate target engagement in vivo, the total and phosphorylated MOB1 levels in livers collected at 1 h post-injection was examined.
Tween 80 and water and were administered to mice by intraperitoneal injection. Blood samples and livers were collected at 30 min and 1 h post-dose, respectively. Plasma concentrations and relative pMOB1 levels were determined by LC-MS/MS and western blot analysis, respectively. (n=3).

For data set [2], the target named is T1, STK3 (Homo sapiens (Human), UniProt Q13188). The experiment in a line: Thermal shift assay (ThermoFluor differential scanning fluorimetry). Format: binding. Conditions: for ΔTm at 10 µM: read-out: ΔTm; for Tm shift: Tm of STK3 or STK4, text statement.
T1 sequence (Q13188 whole entry): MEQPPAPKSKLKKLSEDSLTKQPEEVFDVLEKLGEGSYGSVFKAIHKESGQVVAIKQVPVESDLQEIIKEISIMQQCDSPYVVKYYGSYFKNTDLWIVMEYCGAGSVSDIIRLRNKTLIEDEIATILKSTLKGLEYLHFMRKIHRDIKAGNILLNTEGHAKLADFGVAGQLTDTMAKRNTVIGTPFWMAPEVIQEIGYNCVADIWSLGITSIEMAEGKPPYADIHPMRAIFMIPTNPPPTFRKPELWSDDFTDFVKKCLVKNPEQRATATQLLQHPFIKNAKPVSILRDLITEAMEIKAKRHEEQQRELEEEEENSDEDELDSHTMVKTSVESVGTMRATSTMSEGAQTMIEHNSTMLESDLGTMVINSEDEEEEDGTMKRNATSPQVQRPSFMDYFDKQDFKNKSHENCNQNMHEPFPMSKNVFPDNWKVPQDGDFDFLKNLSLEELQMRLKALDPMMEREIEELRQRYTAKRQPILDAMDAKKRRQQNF
Experimental: Temperature-dependent protein unfolding profiles were measured using a Real-Time PCR Mx3005p machine (Stratagene: San Diego, CA, USA). Data evaluation and melting temperature calculation were performed using Protein Thermal Shift™ Software v1.2.
To further evaluate binding of these compounds to STK3/4, differential scanning fluorimetry (protein thermal shift using ThermoFluor technology) assay was used to benchmark the capacity to stabilize the kinase domain. The melting temperature (Tm) of STK3 or STK4 was measured in the presence of vehicle (DMSO) or 6, 11 or 23.
The target of data set [3] is T2, STK4 (Homo sapiens (Human), UniProt Q13043). The data set is described as follows: ADP-Glo kinase assay, STK4. Conditions: ADP-Glo, 50 μM ATP; read-out: STK4 IC50. Format: biochemical. The method, boiled down:
(§3)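 ADP-Glo readout at 50 μM ATP with 50 ng full-length enzyme: STK4 on 300 μg/mL Axltide substrate, STK3 on 250 μg/mL myelin basic protein. Done as three independent runs in triplicate.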
(In ADP-Glo the light output rises with the ADP produced.)

The nature of another data set: Kinetic solubility. It counts as physicochemical. From the text: Data is represented as an average of a single experiment preformed in duplicate. Atenolol was used as an internal standard.
For data set [4], the target named is T2, STK4. The experiment in a line: NanoBRET intracellular kinase assay, STK4. It counts as cell-based. As to conditions: transfected HEK293 cells, 2 h. The method, then: (§4) Full-length STK3, STK4, and LRRK2 kinase was cloned in-frame with a C-terminal NanoLuc-fusion (Promega: Madison, WI, USA) and the plasmid was transfected into HEK293T cells using FuGENE HD (Promega, E2312). […] After 2 h at 37° C. in a 5% CO2 atmosphere, NanoBRET NanoGlo Substrate+Extra-cellular NanoLuc Inhibitor (Promega, N2540) was added, and filtered luminescence was measured on a PHERAstar plate reader (BMG Labtech; Ortenberg, Germany) equipped with a lumi-nescence filter pair (450 nm BP filter (donor) and 610 nm LP filter (acceptor)).
(§5) This assay measured the apparent affinity of test compounds by competitive displacement of the NanoBRET™ tracer, reversibly bound to a NanoLuc® luciferase-kinase fusion in cells. To evaluate potential off-target activity of the inhibitors, the inhibition of LRRK2 in live cells by the STK3/4 inhibitors compounds described herein were measured. […] A 50 nM tracer and these compounds were added to cells and incubated for 2 h.
(In general: Bioluminescence resonance energy transfer reports proximity on the nanometre scale.)

Data set [5] deals with YAP/TAZ-TEAD activity (8×GTIIC-luciferase) in HEK293 cells. The data set is described as follows: YAP-TAZ-TEAD luciferase assay. It counts as cell-based. As to conditions: 10 μM, 48 h, vs DMSO. The method, then: 8×GTIIC-luciferase was a gift from Stefano Piccolo (Addgene plasmid #34615, http://n2t.net/addgene: 34615: RRID: Addgene_34615). HEK293 cells were transfected with 8×GTIIC-luciferase plasmid and control Renilla luciferase plasmid using jetPRIME transfection reagent (Polyplus-transfection RSA: New York, NY. USA) for 24 h and cultured in Dulbeco's Modified Eagle Media (DMEM) Glutamax supplemented with 10% Fetal Bovine Serum (FBS), antibiotic/antimycotic, and sodium pyruvate (Gibco. Thermo FisherScientific: Waltham. MA. USA). The transfected cells were treated with 10 μM compound in triplicate and incubated for 48 h at 37° C. Firefly and Renilla luminescence were detected with a Dual-Glo Luciferase Assay System (Promega #E2920) according to the manufacturer's recommendations. The ratio of firefly to Renilla luminescence was calculated for each well and normalized to the ratio in control cells incubated with DMSO.
STK3/4 can negatively regulate the activity of the YAP/TAZ-TEAD protein complex and, accordingly, inactivation of these kinases reduces the transcription of YAP/TAZ-TEAD target genes. […] The results confirmed the intracellular on-target activity of our potent compounds for inhibiting STK3 and STK4 activity and targeting gene expression in the Hippo signaling pathway.

The target in data set [6] is T1, STK3. The data set is described as follows: NanoBRET intracellular kinase assay, STK3. It counts as cell-based. As to conditions: NanoBRET, transfected HEK293 cells, 2 h; read-out: STK3: IC50. The procedure: as §4, §5
Another data set can be described thus: in vivo. As to conditions: female, C57BL/6J, mouse, ip, 10 mg/kg. The method, then: as §1, §2
Data set [7] deals with T1, STK3. The experiment in a line: ADP-Glo kinase assay, STK3. As to conditions: ADP-Glo, 50 μM ATP; read-out: STK3 IC50. Format: biochemical. Put shortly:
as §3

[8] abbreviates: FaSSGF, fassgf or other biorelevant, kinetic from dmso stock, FaSSGF, read-out: Solubility, FASSGF.
Setting [9] is: FaSSIF, kinetic from dmso stock, FaSSIF, read-out: Solubility, FaSSIF.
Where [10] appears, read: PBS pH 7.4, pH 7.4, aqueous buffer, kinetic from dmso stock, PBS pH 7.4, read-out: Solubility, Buffer (pH = 7.4).
Where [11] appears, read: mice, 20 mg/kg intraperitoneal, 30 min post-dose, read-out: Plasma concentration.

Molecules are shown by their SMILES. In brackets after ≈: the same amount, converted by molar mass. Read-outs that look alike come from different tables or passages of the source.

T2 sequence (Q13043 whole entry): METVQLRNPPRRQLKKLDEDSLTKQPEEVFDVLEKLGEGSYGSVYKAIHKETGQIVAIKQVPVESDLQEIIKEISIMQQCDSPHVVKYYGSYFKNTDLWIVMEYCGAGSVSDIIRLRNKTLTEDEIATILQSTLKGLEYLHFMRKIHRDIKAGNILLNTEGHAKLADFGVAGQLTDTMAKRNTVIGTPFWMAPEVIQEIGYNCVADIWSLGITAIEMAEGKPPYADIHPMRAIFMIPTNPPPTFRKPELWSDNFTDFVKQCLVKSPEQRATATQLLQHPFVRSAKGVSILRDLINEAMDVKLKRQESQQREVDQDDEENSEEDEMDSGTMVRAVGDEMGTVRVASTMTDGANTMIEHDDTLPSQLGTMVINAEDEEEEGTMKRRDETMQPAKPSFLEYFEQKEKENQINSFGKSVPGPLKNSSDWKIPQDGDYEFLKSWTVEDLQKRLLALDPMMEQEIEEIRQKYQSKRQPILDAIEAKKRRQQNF

Usually ΔTm stands for the change in melting temperature against a reference sample. Broadly, the IC50 is the concentration that inhibits the measured activity by half. For orientation: solubility means the dissolved amount per volume that the medium holds. For `Clc1cccc(-c2c[nH]c3ncnc(N4CCOCC4)c23)c1` [Compound 6, 4-(5-(3-Chlorophenyl)-7H-pyrrolo[2,3-d]pyrimidin-4-yl)morpholine], in data set [1] (20 mg/kg), the concentration at 30 min turned out to be 6.9 µM. The same compound returned a concentration at 1 h in data set [1] (20 mg/kg) of 15.3 µM. For the same compound, the shift in melting temperature (ΔTm) at 10 µM on STK3 [2] is 8.1 °C. The IC50 on STK4 [3] and at STK4 [4] was under 1 µM each time. Further, the solubility in “Kinetic solubility” (setting [8]) was 353 µM (≈ 111 µg/mL); in the data set “Kinetic solubility” (setting [9]), 35.7 µM (≈ 11.2 µg/mL); in the data set “Kinetic solubility” (setting [10]), 9.2 µM (≈ 2.9 µg/mL). In addition, the “YAP/TAZ-TEAD activity (luciferase reporter)” value (“YAP/TAZ-TEAD activity” below) in data set [5] is reported as “marked increase”.
A word on the AUC(0-t): it is the area under the concentration-time curve up to a stated or last time point. Lower therefore signals low exposure. By Cmax is commonly meant the highest concentration seen after dosing. As a reminder, the Tmax is the time from dosing to the highest level. The half-life is the time in which the quantity being followed falls by half. `CC(=O)NC1CCN(c2ncnc3[nH]cc(-c4cccc(Cl)c4)c23)CC1` [Compound 105, N-(1-(5-(3-chlorophenyl)-7H-pyrrolo[2,3-d]pyrimidin-4-yl)piperidin-4-yl)acetamide]: in [1] (20 mg/kg), the concentration at 30 min stood at 8.7 µM and the concentration at 1 h was 4.6 µM. For the same compound, the IC50 at STK4 [3] is under 1 µM. The IC50 at STK3 [6] was under 1 µM. Also, in “in vivo”, the AUC(0-t) is 8.1 µM·h, the Cmax is 11.8 µM, the Tmax worked out at 15 min and the half-life is 318 min. The IC50 at STK4 [4] is under 1 µM. The IC50 on STK3 [7] is under 1 µM.
As for `Clc1cccc(-c2c[nH]c3nccc(N4CCOCC4)c23)c1` [Compound 23, 4-(3-(3-chlorophenyl)-1H-pyrrolo[2,3-b]pyridin-4-yl)morpholine], in [1] (20 mg/kg), the concentration at 30 min was 7.1 µM. Besides, the concentration at 1 h in data set [1] (20 mg/kg) amounted to 16.6 µM. Further, the Tm shift on STK3 [2] was over 7.4 °C. For the same compound, the ΔTm at 10 µM at STK3 [2] stood at 7.9 °C. For the same compound, the 50% inhibitory concentration (IC50) on STK4 [3], on STK3 [6], against STK4 [4] and on STK3 [7] was under 1 µM in each case. Further, the solubility in the data set “Kinetic solubility” (setting [8]) is 372 µM (≈ 117 µg/mL); in the data set “Kinetic solubility” (setting [9]) it was 7 µM (≈ 2.2 µg/mL); in “Kinetic solubility” (setting [10]), under 0.6 µM. Moreover, the “YAP/TAZ-TEAD activity” value in data set [5] is “marked increase”.
In data set [1] (20 mg/kg), `NC(=O)c1cccc(-c2c[nH]c3ncnc(N4CCOCC4)c23)c1` [Compound 11, 3-(4-Morpholino-7H-pyrrolo[2,3-d]pyrimidin-5-yl)benzamide] displayed a concentration at 1 h of 23.2 µM. In data set [1] (setting [11]), the concentration at 30 min stood at 15.9 µM. Besides, the ΔTm at 10 µM on STK3 [2] amounted to 7.4 °C. The solubility in the data set “Kinetic solubility” (setting [8]) is 430 µM (≈ 139 µg/mL). Moreover, in the data set “Kinetic solubility” (setting [9]), the solubility was found to be 136 µM (≈ 43.8 µg/mL). In addition, the solubility in “Kinetic solubility” (setting [10]) came out at 145 µM (≈ 46.9 µg/mL). Further, the IC50 at STK3 [6] was under 1 µM. In the data set “in vivo”, the AUC(0-t) turned out to be 9.5 µM·h, the Cmax is 10.9 µM, the Tmax came out at 30 min and the half-life is 42 min. The IC50 at STK3 [7] is under 1 µM. Besides, the “YAP/TAZ-TEAD activity” value in data set [5] is “marked increase”.
On to `OC1CCN(c2ncnc3[nH]cc(-c4cccc(Cl)c4)c23)CC1` [Compound 16, 1-(5-(3-Chlorophenyl)-7H-pyrrolo[2,3-d]pyrimidin-4-yl)piperidin-4-ol], for which, in data set [1] (20 mg/kg), the concentration at 1 h came out at 5.9 µM. Further, the concentration at 30 min in [1] (setting [11]) came out at 11.6 µM. Moreover, the Tm shift result on STK3 [2] is recorded as “comparable results”. In addition, at STK3 [2], the ΔTm at 10 µM worked out at 8 °C. Also, the IC50 at STK4 [3], at STK3 [6], at STK4 [4] and at STK3 [7] was under 1 µM throughout. Moreover, the solubility was determined as 352 µM (≈ 116 µg/mL) in “Kinetic solubility” (setting [8]); 294 µM (≈ 96.5 µg/mL) in “Kinetic solubility” (setting [9]); 189 µM (≈ 62.1 µg/mL) in the data set “Kinetic solubility” (setting [10]); 188.5 µM (≈ 62 µg/mL) in the data set “Kinetic solubility” (PBS pH 7.4, read-out: Solubility, Buffer (pH = 7.4)). This compound also had an AUC(0-t) in “in vivo” of 4.3 µM·h. The Cmax in “in vivo” stood at 5.8 µM. For the same compound, in the data set “in vivo”, the Tmax stood at 15 min. In the data set “in vivo”, this compound had a half-life of 594 min. Moreover, the “YAP/TAZ-TEAD activity” value in data set [5] was “marked increase”.
